From patent US8802866B2, “Pyridinylimidazolone derivatives for the inhibition of PI3 kinases” (Merck Patent GmbH, priority 2009, dated 2014)
Read-outs that look alike come from different tables or passages of the source.

What was measured:
DNA-PK protein complex = DNA-PK protein complex (Homo sapiens, UniProt P78527); test: Biochemical DNA-PK assay (FlashPlate)
Summary of the method: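 Streptavidin-coated FlashPlate radiometric kinase assay, stopped with 200 mM EDTA, then wells washed with 0.9% NaCl and bound radioactivity counted. Blank (non-specific reaction) defined with a proprietary kinase inhibitor at 10 μM.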

PI3Kalpha = PI3Kalpha (Homo sapiens, UniProt P42336); test: Biochemical PI3Kalpha assay (neomycin SPA, lipid phosphorylation); settings: human recombinant GST-PI3K
PI3Kalpha, sequence (P42336 whole entry): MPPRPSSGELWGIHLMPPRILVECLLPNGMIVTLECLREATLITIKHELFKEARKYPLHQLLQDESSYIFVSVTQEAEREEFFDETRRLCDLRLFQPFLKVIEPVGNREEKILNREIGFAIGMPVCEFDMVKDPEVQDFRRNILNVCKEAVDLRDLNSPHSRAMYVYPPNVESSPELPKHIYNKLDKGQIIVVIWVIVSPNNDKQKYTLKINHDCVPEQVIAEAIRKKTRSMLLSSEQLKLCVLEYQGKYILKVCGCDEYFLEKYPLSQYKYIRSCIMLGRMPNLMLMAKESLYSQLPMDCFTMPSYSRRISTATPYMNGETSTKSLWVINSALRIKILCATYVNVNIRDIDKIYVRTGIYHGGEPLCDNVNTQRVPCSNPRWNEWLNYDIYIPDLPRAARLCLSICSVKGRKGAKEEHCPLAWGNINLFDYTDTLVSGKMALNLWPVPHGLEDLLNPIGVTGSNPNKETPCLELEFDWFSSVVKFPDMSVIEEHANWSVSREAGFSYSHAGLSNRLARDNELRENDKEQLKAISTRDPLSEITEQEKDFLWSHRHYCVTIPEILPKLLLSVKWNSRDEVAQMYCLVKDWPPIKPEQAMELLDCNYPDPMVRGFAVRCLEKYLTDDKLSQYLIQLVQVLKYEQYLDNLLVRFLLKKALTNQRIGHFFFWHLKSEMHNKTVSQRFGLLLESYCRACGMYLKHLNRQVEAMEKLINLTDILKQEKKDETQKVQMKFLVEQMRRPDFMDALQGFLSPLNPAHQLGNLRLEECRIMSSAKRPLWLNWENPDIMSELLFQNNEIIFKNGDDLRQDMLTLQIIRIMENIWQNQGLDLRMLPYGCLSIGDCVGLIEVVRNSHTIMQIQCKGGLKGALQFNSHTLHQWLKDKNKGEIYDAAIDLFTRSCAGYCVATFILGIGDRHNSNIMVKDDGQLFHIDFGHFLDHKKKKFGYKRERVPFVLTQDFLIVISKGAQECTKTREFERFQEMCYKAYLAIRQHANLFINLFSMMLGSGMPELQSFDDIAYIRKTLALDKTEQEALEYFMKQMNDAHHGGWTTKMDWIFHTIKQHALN
PI3Kalpha, sequence (P27986 whole entry partner): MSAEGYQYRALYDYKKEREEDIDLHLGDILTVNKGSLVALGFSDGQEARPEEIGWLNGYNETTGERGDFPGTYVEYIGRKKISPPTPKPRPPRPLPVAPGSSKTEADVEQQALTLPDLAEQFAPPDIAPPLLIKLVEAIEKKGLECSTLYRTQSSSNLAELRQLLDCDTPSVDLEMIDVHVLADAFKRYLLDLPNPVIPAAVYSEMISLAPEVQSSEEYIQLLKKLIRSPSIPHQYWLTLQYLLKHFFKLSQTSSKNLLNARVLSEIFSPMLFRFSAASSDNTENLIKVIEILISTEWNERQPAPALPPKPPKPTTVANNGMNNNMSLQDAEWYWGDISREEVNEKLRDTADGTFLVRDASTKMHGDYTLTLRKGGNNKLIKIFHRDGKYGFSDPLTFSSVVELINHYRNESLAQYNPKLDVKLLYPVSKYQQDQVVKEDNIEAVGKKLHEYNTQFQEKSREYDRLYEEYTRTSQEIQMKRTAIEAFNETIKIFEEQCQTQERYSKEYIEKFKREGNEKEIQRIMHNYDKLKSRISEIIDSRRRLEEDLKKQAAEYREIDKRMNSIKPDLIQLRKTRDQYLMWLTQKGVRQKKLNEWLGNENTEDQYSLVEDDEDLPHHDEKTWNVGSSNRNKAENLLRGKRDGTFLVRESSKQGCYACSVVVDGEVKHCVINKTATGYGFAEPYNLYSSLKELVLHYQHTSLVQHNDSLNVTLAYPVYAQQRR
Summary of the method: (§1)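 Recombinant PI3K incubated with lipid substrate and radioactive ATP for 120 min at room temperature with gentle stirring, then stopped with neomycin-coated PVT-SPA beads, ATP 60 mM and EDTA 6.2 mM in PBS. After 60 min bead binding and centrifugation, radioactive Ptdlns(3)P counted by scintillation.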

PI3Kbeta = PI3Kbeta (Homo sapiens, UniProt P42338); test: Biochemical PI3Kbeta assay (neomycin SPA, lipid phosphorylation); settings: human recombinant GST-PI3K
PI3Kbeta, sequence (P42338 whole entry): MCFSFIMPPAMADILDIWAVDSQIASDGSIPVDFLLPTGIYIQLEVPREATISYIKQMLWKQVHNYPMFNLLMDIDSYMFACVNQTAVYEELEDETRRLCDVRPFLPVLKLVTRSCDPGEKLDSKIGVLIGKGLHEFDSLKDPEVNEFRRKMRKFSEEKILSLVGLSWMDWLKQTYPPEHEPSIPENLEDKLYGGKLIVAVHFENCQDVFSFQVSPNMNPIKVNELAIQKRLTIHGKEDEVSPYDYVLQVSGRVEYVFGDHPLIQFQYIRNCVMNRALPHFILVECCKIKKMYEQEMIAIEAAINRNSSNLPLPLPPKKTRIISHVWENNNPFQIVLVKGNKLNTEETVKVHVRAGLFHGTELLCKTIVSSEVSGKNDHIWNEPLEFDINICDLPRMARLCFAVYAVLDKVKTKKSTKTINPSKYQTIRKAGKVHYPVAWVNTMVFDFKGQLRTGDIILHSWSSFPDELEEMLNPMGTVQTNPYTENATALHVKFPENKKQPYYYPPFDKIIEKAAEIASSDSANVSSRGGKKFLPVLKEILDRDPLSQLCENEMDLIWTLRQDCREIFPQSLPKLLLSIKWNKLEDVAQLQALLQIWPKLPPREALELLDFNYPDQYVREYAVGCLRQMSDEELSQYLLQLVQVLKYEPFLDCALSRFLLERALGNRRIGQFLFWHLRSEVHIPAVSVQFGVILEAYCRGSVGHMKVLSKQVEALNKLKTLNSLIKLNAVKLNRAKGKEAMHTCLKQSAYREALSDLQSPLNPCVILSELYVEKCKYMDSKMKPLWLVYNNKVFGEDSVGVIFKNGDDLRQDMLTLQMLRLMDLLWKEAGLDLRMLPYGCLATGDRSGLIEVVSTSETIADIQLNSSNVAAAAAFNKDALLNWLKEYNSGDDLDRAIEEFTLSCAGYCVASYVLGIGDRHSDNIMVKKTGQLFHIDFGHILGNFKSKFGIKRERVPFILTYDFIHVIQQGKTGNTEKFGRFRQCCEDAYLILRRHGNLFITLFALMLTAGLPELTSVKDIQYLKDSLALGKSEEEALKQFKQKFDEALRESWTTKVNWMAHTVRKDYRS
PI3Kbeta, sequence (P27986 whole entry partner): as the sequence (P27986 whole entry partner) above
Summary of the method: as §1

[1] = molecular target: recombinant PI3Kalpha (shortened form of the catalytic subunit) (Homo sapiens, UniProt P42336); test: BIACORE PI3K binding assay (SPR); settings: 25° C.
recombinant PI3Kalpha (shortened form of the catalytic subunit), sequence (P42336 151-1068 limits assumed): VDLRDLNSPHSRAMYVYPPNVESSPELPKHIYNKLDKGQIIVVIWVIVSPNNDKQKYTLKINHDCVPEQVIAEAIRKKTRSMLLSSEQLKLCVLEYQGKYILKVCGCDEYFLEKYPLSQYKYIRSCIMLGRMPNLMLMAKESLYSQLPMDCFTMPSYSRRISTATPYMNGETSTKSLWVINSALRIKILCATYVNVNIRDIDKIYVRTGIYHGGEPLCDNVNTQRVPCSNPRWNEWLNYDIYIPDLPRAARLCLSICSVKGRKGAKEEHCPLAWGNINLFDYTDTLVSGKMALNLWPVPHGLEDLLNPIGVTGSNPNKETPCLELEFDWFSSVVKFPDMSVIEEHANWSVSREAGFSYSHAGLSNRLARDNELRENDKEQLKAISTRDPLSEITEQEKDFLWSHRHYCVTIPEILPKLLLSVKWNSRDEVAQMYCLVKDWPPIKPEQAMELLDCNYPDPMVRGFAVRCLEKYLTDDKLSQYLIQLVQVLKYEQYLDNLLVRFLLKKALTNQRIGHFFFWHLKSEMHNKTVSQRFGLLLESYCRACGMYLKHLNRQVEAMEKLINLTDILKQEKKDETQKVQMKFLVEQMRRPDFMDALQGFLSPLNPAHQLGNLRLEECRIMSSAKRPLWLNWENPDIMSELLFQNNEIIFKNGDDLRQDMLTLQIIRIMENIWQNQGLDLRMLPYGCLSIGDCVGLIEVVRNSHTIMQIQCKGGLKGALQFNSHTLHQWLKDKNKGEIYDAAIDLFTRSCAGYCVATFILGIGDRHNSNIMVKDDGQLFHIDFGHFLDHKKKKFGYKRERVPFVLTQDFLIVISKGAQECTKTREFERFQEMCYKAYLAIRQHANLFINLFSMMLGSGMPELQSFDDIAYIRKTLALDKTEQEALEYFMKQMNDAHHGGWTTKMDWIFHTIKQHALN
Summary of the method: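 Contact time was 180 s and dissociation 240 s, in HEPES pH 7.40 buffer with 2% DMSO. Solvent-corrected, double-referenced data were fitted to a 1:1 model with mass transport.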

[2] = test system: PI3K-dependent phosphorylation of PKB at Serin 473 in PC3 cells; test: Cellular PI3K assay (P-S473-PKB Luminex assay in PC3 cells); type: cell-based; settings: Homo sapiens, PC-3, 0.5 h, read-out: IC50 (cell)
Summary of the method: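 PC3 cells were exposed for 30 min under serum-free conditions to 7 concentrations of compound, then lysed. Lysates were captured overnight at 4°C on anti-total-PKB Luminex beads and detected with P-S473-PKB antibody plus PE-labelled secondary.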

mTOR = molecular target: T1, mTOR (Homo sapiens, UniProt P42345); test: Biochemical mTOR assay (Millipore mTOR assay kit)
T1 construct: purchased Millipore 14-770
T1 sequence (P42345 1362-2549 limits assumed): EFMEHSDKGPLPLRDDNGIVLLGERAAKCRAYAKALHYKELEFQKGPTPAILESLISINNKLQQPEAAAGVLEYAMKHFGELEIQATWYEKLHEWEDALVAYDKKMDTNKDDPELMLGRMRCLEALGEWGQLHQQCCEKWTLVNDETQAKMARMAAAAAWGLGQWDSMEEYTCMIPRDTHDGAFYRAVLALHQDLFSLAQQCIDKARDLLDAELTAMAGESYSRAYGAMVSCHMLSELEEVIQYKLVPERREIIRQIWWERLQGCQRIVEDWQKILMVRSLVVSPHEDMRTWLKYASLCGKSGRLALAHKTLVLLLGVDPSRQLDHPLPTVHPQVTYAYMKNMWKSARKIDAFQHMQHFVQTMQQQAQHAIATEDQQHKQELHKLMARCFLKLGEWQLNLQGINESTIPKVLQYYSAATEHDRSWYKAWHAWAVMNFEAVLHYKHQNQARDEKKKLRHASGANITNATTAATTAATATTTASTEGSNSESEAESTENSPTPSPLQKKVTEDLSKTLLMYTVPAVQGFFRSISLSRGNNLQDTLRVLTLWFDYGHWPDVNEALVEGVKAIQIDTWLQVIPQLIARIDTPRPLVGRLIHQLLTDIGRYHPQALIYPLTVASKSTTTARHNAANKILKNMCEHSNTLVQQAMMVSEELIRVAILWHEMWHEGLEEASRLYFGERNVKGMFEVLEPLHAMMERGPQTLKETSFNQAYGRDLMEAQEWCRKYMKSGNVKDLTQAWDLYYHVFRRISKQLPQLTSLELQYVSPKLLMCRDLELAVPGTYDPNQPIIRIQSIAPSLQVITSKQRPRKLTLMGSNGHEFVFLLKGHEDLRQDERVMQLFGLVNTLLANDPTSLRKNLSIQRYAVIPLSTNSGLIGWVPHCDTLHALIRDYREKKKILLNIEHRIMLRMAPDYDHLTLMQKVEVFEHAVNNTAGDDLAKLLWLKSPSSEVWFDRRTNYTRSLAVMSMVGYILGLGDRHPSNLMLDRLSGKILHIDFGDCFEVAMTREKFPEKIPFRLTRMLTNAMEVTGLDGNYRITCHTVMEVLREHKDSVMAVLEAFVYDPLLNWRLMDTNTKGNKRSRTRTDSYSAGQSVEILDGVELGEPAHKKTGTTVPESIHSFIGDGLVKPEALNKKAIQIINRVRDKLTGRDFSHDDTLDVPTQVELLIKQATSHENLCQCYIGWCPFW
Protocol: The biochemical mTOR assay was carried out by the method described in the Millipore mTOR assay kit (catalogue number 14-770).

[3] = PC3 cells, 30 min, serum-free, P-S473-PKB

O=c1[nH]cc(-c2cc(-c3cnc4ccccc4c3)ccn2)n1-c1ccc(N2CCNCC2)c(C(F)(F)F)c1 [Example A5, 1-(4-piperazin-1-yl-3-trifluoromethylphenyl)-5-(4-quinolin-3-ylpyridin-2-yl)-1,3-dihydroimidazol-2-one]
IC50 (DNA-PK protein complex): 0.1 to 10 µM | melting point: 155 °C | IC50 (PI3Kalpha): 0.1 to 10 µM | IC50 (PI3Kbeta): 0.1 to 10 µM | Kd [1]: 0.1 to 10 µM | IC50 [2, 3]: 0.1 to 10 µM

COc1cc(-c2ccnc(-c3cn(C)c(=O)n3-c3ccc(C(C)(C)C#N)cc3)c2)ccn1 [Example A6, 2-{4-[5-(2′-Methoxy-[4,4′]bipyridinyl-2-yl)-3-methyl-2-oxo-2,3-dihydroimidazol-1-yl]phenyl}-2-methylpropionitrile]
IC50 (DNA-PK protein complex): 0.1 to 10 µM | melting point: 138 °C | IC50 (PI3Kalpha): 0.1 to 10 µM | IC50 (PI3Kbeta): 0.1 to 10 µM | Kd [1]: 0.1 to 10 µM | IC50 [2, 3]: > 10 µM

Cc1nc2cc(-c3ccnc(-c4cn(C)c(=O)n4-c4ccc(C(C)(C)C#N)cc4)c3)cnc2[nH]1 [Example A7, 2-Methyl-2-(4-{3-methyl-5-[4-(2-methyl-3H-imidazo[4,5-b]pyridin-6-yl)pyridin-2-yl]-2-oxo-2,3-dihydroimidazol-1-yl}phenyl)propionitrile]
IC50 (DNA-PK protein complex): 0.1 to 10 µM | melting point: 288 °C | IC50 (PI3Kalpha): 0.0001 to 0.1 µM | IC50 (PI3Kbeta): 0.1 to 10 µM | Kd [1]: 0.0001 to 0.1 µM | IC50 [2, 3]: 0.1 to 10 µM

Cn1cc(-c2cc(-c3ccc(N)nc3)ccn2)n(-c2ccc(C(C)(C)C#N)cc2)c1=O [Example A8, 2-{4-[5-(6-Amino-[3,4′]bipyridinyl-2′-yl)-3-methyl-2-oxo-2,3-dihydroimidazol-1-yl]phenyl}-2-methylpropionitrile]
IC50 (DNA-PK protein complex): 0.1 to 10 µM | melting point: 252 °C | IC50 (PI3Kalpha): 0.0001 to 0.1 µM | IC50 (PI3Kbeta): 0.1 to 10 µM | Kd [1]: 0.0001 to 0.1 µM | IC50 [2, 3]: 0.1 to 10 µM

Cn1cc(-c2cc(-c3cccnc3)ccn2)n(-c2ccc(C(C)(C)C#N)cc2)c1=O [Example A10, 2-[4-(5-[3,4′]Bipyridinyl-2′-yl-3-methyl-2-oxo-2,3-dihydroimidazol-1-yl)phenyl]-2-methylpropionitrile]
IC50 (DNA-PK protein complex): 0.0001 to 0.1 µM | melting point: 180 °C | IC50 (PI3Kalpha): 0.1 to 10 µM | IC50 (PI3Kbeta): 0.1 to 10 µM | Kd [1]: 0.1 to 10 µM | IC50 [2, 3]: > 10 µM

Cn1cc(-c2cc(-c3ccncc3)ccn2)n(-c2ccc(C(C)(C)C#N)cc2)c1=O [Example A11, 2-[4-(5-[4,4′]Bipyridinyl-2-yl-3-methyl-2-oxo-2,3-dihydroimidazol-1-yl)phenyl]-2-methylpropionitrile]
IC50 (DNA-PK protein complex): 0.0001 to 0.1 µM | melting point: 226 °C | IC50 (PI3Kalpha): 0.1 to 10 µM | IC50 (PI3Kbeta): > 10 µM | IC50 [2, 3]: > 10 µM

COc1ccc(-c2ccnc(-c3c[nH]c(=O)n3-c3ccc(C(C)(C)C#N)cc3)c2)cn1 [Example A15, 2-{4-[5-(6-Methoxy-[3,4′]bipyridinyl-2′-yl)-2-oxo-2,3-dihydroimidazol-1-yl]-10 phenyl}-2-methylpropionitrile]
IC50 (DNA-PK protein complex): 0.1 to 10 µM | melting point: 277 °C | IC50 (PI3Kalpha): 0.1 to 10 µM | IC50 (PI3Kbeta): 0.1 to 10 µM | Kd [1]: 0.1 to 10 µM | IC50 [2, 3]: 0.1 to 10 µM

CC(C)(CN)c1ccc(-n2c(-c3cc(-c4cnc5ccccc5c4)ccn3)c[nH]c2=O)cc1 [Example A16, 1-[4-(2-Amino-1,1-dimethylethyl)phenyl]-5-(4-quinolin-3-ylpyridin-2-yl)-1,3-dihydroimidazol-2-one]
IC50 (DNA-PK protein complex): 0.1 to 10 µM | melting point: 244 to 247 °C | IC50 (PI3Kalpha): 0.1 to 10 µM | IC50 (PI3Kbeta): 0.1 to 10 µM | Kd [1]: 0.1 to 10 µM | IC50 [2, 3]: > 10 µM

CC(C)(C#N)c1ccc(-n2c(-c3cc(-c4cnc5ccccc5c4)ccn3)c[nH]c2=O)cc1 [Example A17, 2-Methyl-2-{4-[2-oxo-5-(4-quinolin-3-ylpyridin-2-yl)-2,3-dihydroimidazol-1-yl]-phenyl}propionitrile]
IC50 (DNA-PK protein complex): 0.1 to 10 µM | melting point: 271 °C | IC50 (PI3Kalpha): 0.1 to 10 µM | IC50 (PI3Kbeta): 0.1 to 10 µM | Kd [1]: 0.1 to 10 µM | IC50 [2, 3]: 0.1 to 10 µM

Cn1cc(-c2cc(-c3cnc4ccccc4c3)ccn2)n(-c2ccc(C(C)(C)CN)cc2)c1=O [Example A30, 3-[4-(2-Amino-1,1-dimethylethyl)phenyl]-1-methyl-4-(4-quinolin-3-ylpyridin-2-yl)-1,3-dihydroimidazol-2-one]
IC50 (DNA-PK protein complex): 0.1 to 10 µM | melting point: 132 °C | IC50 (PI3Kalpha): 0.1 to 10 µM | IC50 (PI3Kbeta): > 10 µM | IC50 [2, 3]: > 10 µM

Cn1cc(-c2cc(-c3cnc4c(c3)CCC(=O)N4)ccn2)n(-c2ccc(C(C)(C)C#N)cc2)c1=O [Example A45, 2-Methyl-2-(4-{3-methyl-2-oxo-5-[4-(7-oxo-5,6,7,8-tetrahydro-[1,8]naphthyridin-3-yl)pyridin-2-yl]-2,3-dihydroimidazol-1-yl}phenyl)propionitrile]
IC50 (DNA-PK protein complex): 0.0001 to 0.1 µM | melting point: 284 °C | IC50 (PI3Kalpha): 0.0001 to 0.1 µM | IC50 (PI3Kbeta): 0.1 to 10 µM | IC50 [2, 3]: 0.1 to 10 µM

Cc1cc2cc(-c3ccnc(-c4cn(C)c(=O)n4-c4ccc(C(C)(C)C#N)cc4)c3)cnc2[nH]1 [Example A85, 2-Methyl-2-(4-{3-methyl-5-[4-(2-methyl-1H-pyrrolo[2,3-b]pyridin-5-yl)pyridin-2-yl]-2-oxo-2,3-dihydroimidazol-1-yl}phenyl)propionitrile]
IC50 (DNA-PK protein complex): 0.0001 to 0.1 µM | IC50 (PI3Kalpha): 0.1 to 10 µM | IC50 (mTOR): 0.1 to 10 µM | IC50 (PI3Kbeta): 0.1 to 10 µM | Kd [1]: 0.0001 to 0.1 µM | IC50 [2]: 0.1 to 10 µM

CN1CCN(c2ccc(-n3c(-c4cc(-c5cnc6[nH]c(C(C)(C)C)cc6c5)ccn4)cn(C)c3=O)cc2C(F)(F)F)CC1 [Example A86, 4-[4-(2-tert-Butyl-1H-pyrrolo[2,3-b]pyridin-5-yl)pyridin-2-yl]-1-methyl-3-[4-(4-methylpiperazin-1-yl)-3-trifluoromethylphenyl]-1,3-dihydroimidazol-2-one]
IC50 (DNA-PK protein complex): 0.0001 to 0.1 µM | IC50 (PI3Kalpha): 0.1 to 10 µM | IC50 (mTOR): 0.1 to 10 µM | IC50 (PI3Kbeta): 0.1 to 10 µM | Kd [1]: 0.1 to 10 µM | IC50 [2, 3]: 0.1 to 10 µM

CN1CCN(c2ccc(-n3c(-c4cc(-c5cnc6[nH]c(C(F)(F)F)cc6c5)ccn4)cn(C)c3=O)cc2C(F)(F)F)CC1 [Example A87, 1-Methyl-3-[4-(4-methylpiperazin-1-yl)-3-trifluoromethylphenyl]-4-[4-(2-trifluoro-methyl-1H-pyrrolo[2,3-b]pyridin-5-yl)pyridin-2-yl]-1,3-dihydroimidazol-2-one]
IC50 (DNA-PK protein complex): 0.0001 to 0.1 µM | IC50 (PI3Kalpha): 0.1 to 10 µM | IC50 (mTOR): 0.1 to 10 µM | IC50 (PI3Kbeta): 0.1 to 10 µM | Kd [1]: 0.1 to 10 µM | IC50 [2, 3]: 0.1 to 10 µM

Cn1cc(-c2cc(-c3ccc4ncncc4c3)ccn2)n(-c2ccc(C(C)(C)C#N)cc2)c1=O [Example A91, 2-Methyl-2-{4-[3-methyl-2-oxo-5-(4-quinazolin-6-ylpyridin-2-yl)-2,3-dihydro-imidazol-1-yl]phenyl}propionitrile]
IC50 (DNA-PK protein complex): 0.0001 to 0.1 µM | IC50 (PI3Kalpha): 0.1 to 10 µM | IC50 (mTOR): 0.1 to 10 µM | IC50 (PI3Kbeta): > 10 µM | Kd [1]: 0.1 to 10 µM | IC50 [2, 3]: > 10 µM

Cn1cc(-c2cc(-c3cnc4[nH]c(C(C)(C)C)cc4c3)ccn2)n(-c2ccc(C(C)(C)C#N)cc2)c1=O [Example A92, 2-(4-{5-[4-(2-tert-Butyl-1H-pyrrolo[2,3-b]pyridin-5-yl)pyridin-2-yl]-3-methyl-2-oxo-2,3-dihydroimidazol-1-yl}phenyl)-2-methylpropionitrile]
IC50 (DNA-PK protein complex): 0.0001 to 0.1 µM | IC50 (PI3Kalpha): 0.1 to 10 µM | IC50 (mTOR): 0.1 to 10 µM | IC50 (PI3Kbeta): 0.1 to 10 µM | Kd [1]: 0.1 to 10 µM | IC50 [2, 3]: > 10 µM

Cn1cc(-c2cc(-c3ccc(N)c(C(F)(F)F)c3)ccn2)n(-c2ccc(C(C)(C)C#N)cc2)c1=O [Example A93, 2-(4-{5-[4-(4-Amino-3-trifluoromethylphenyl)pyridin-2-yl]-3-methyl-2-oxo-2,3-dihydroimidazol-1-yl}phenyl)-2-methylpropionitrile]
IC50 (DNA-PK protein complex): 0.0001 to 0.1 µM | IC50 (PI3Kalpha): 0.1 to 10 µM | IC50 (mTOR): 0.1 to 10 µM | IC50 (PI3Kbeta): 0.1 to 10 µM | Kd [1]: 0.0001 to 0.1 µM | IC50 [2, 3]: 0.1 to 10 µM

Cn1cc(-c2cc(-c3cnc4[nH]ccc4c3)ccn2)n(-c2cc(F)cc(C#N)c2)c1=O [Example A96, 3-Fluoro-5-{3-methyl-2-oxo-5-[4-(1H-pyrrolo[2,3-b]pyridin-5-yl)pyridin-2-yl]-2,3-dihydroimidazol-1-yl}benzonitrile]
IC50 (DNA-PK protein complex): 0.0001 to 0.1 µM | IC50 (PI3Kalpha): 0.1 to 10 µM | IC50 (mTOR): 0.1 to 10 µM | IC50 (PI3Kbeta): 0.1 to 10 µM | Kd [1]: 0.1 to 10 µM | IC50 [2, 3]: 0.1 to 10 µM

Cn1cc(-c2cc(-c3cnc4[nH]cc(F)c4c3)ccn2)n(-c2ccc(F)c(C(F)(F)F)c2)c1=O [Example A105, 4-[4-(3-Fluoro-1H-pyrrolo[2,3-b]pyridin-5-yl)pyridin-2-yl]-3-(4-fluoro-3-trifluoro-methylphenyl)-1-methyl-1,3-dihydroimidazol-2-one]
IC50 (DNA-PK protein complex): 0.1 to 10 µM | melting point: 268 °C | IC50 [2, 3]: 0.1 to 10 µM
